{
  "source": "patent US20250108038A1",
  "about": "(priority 2023, published 2025)",
  "key": {"in vivo": {"assay": "in vivo", "conditions": "for plasma concentration of Compound A: Compound A single PO 5.102 mg/kg", "description": "Dose solutions were prepared freshly on each day of studies prior to dosing.\nThe animals were weighed immediately prior to dosing and the dose volume was calculated individually based the obtained body weight and the nominal dose volume. […] The nominal dose volume was 10 mL/kg in both studies.\nCage side observation was performed before and after dosing as well as at each scheduled sample collection time. The observation included appearance, posture, behavior, morbidity and mortality. Abnormal findings, if any, are required to be recorded in the study record and communicated with study director, veterinarian, and Supernus if necessary.\nApproximately 40 μL blood was collected at each scheduled time point from saphenous veins. The actual sample collection time was within 1 min. of the nominal time for collections prior to or at 1 hour, and within 5% of the nominal values for collections post 1 hour.\nThe blood samples were placed in pre-labeled micro-centrifuge tubes containing K2EDTA as anticoagulant and kept on ice before they were processed to plasma within 30 minutes of collection by centrifugation at 4° C., 3000 g for 5 minutes. The plasma samples were stored at −70±10° C. until LC-MS/MS analysis.\nPlasma concentrations below the LLOQ prior to Tmax were set to zero, and those after Tmax were excluded from PK calculation. The nominal dose and the nominal sample collection time were used for the calculation. The values of plasma concentrations and PK parameters are reported to three significant figures. The average values of each treatment group are presented as mean±SD."}, "OCT2": {"target": "T1, OCT2 (Homo sapiens, UniProt O15244)", "T1 sequence (O15244 1-555)": "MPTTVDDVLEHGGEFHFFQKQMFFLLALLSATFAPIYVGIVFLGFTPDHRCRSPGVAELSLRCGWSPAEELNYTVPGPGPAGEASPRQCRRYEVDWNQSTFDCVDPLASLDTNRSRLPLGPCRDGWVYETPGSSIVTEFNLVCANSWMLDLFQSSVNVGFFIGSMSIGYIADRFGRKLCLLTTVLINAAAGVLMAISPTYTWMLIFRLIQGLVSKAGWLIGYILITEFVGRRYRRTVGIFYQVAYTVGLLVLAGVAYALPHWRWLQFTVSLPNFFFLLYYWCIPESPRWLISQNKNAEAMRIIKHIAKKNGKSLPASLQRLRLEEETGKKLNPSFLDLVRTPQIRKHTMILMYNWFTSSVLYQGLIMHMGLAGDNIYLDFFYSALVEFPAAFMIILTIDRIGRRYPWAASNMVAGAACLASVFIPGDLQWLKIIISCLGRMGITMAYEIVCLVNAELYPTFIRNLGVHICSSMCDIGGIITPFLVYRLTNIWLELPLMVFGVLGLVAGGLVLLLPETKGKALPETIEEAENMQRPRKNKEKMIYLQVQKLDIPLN", "assay": "Uptake transporter inhibition assay, OCT2 (metformin)", "description": "Uptake experiments were performed using HEK293 cells stably expressing the respective uptake transporters. The assays were conducted according to the actual SOLVO uptake transporter assay protocols (PR-ASY-UPT-General Protocol for Uptake Transporter Inhibition Assays).\nCells were cultured at 37° C. in a humidified atmosphere containing 5% CO2 and were plated onto standard 96-well tissue culture plates.\nBefore the experiment, the medium was removed, and the cells were washed twice with 100 μL of pre-warmed (37° C.) assay buffer listed in Table 15. The cells were pre-incubated at 37° C. for 30 minutes in assay buffer containing the test article at appropriate concentrations (Table 16), appropriate solvents for solvent controls and the reference inhibitor for reference inhibitor wells. After the pre-incubation step solutions were removed. Uptake experiments were performed at 37° C. in 50 μL of assay buffer containing the probe substrate and the test article or solvent and controls.\nAfter the experiment, cells were washed twice with 100 μL of appropriate cold buffer and lysed with 150 μL scintillation cocktail. Radiolabeled probe substrate transport was determined by liquid scintillation counting.\nUptake of the probe substrate in control cells provided background activity values for all data points."}, "[1]": {"conditions": "male, CD-1, mouse, in vivo, po, 5.102 mg/kg"}, "[2]": {"conditions": "0.04 μM nominal, metformin, IC50 determination, Table 124"}, "[3]": {"conditions": "0.12 μM nominal, metformin, IC50 determination, Table 124"}, "[4]": {"conditions": "1.11 μM nominal, metformin, IC50 determination, Table 124"}, "[5]": {"conditions": "3.00 μM nominal, metformin, Table 123"}, "[6]": {"conditions": "10.00 μM nominal, metformin, IC50 determination, Table 124"}, "[7]": {"conditions": "30.00 μM nominal, metformin, IC50 determination, Table 124"}, "[8]": {"conditions": "30.00 μM nominal, metformin, Table 123"}},
  "note": "“And” between values parts separate entries of the source, which are not always exact repeats. Equal values may be shown once.",
  "data": [
    {"smiles": "OC1(c2ccc(Cl)cc2)c2ccccc2C2=NCCN21", "note": "(centres unmarked) [Compound A, 5-(4-chlorophenyl)-2,3-dihydroimidazo[1,2-b]isoindol-5-ol, reference compound]", "values": [
      {"measurement": "plasma concentration of Compound A", "setting": "in vivo; 0.500 h, individual mice, 5.102 mg/kg", "value": "117 ng/mL and 172 ng/mL and 141 ng/mL"},
      {"measurement": "plasma concentration of Compound A", "setting": "in vivo; 0.500 h, mean", "value": 143, "unit": "ng/mL"},
      {"measurement": "plasma concentration of Compound A", "setting": "in vivo; 1.00 h, individual mice, 5.102 mg/kg", "value": "77.8 ng/mL and 71.7 ng/mL and 102 ng/mL"},
      {"measurement": "plasma concentration of Compound A", "setting": "in vivo; 1.00 h, mean", "value": 83.8, "unit": "ng/mL"},
      {"measurement": "plasma concentration of Compound A", "setting": "in vivo; 2.00 h, individual mice, 5.102 mg/kg", "value": "32.3 ng/mL and 25.2 ng/mL and 24.4 ng/mL"},
      {"measurement": "plasma concentration of Compound A", "setting": "in vivo; 2.00 h, mean", "value": 27.3, "unit": "ng/mL"},
      {"measurement": "plasma concentration of Compound A", "setting": "in vivo; 4.00 h, individual mice, 5.102 mg/kg", "value": "9.42 ng/mL and 4.31 ng/mL and 8.99 ng/mL"},
      {"measurement": "plasma concentration of Compound A", "setting": "in vivo; 4.00 h, mean", "value": 7.57, "unit": "ng/mL"},
      {"measurement": "plasma concentration of Compound A", "setting": "in vivo; 8.00 h, individual mice", "value": "BQL"},
      {"measurement": "plasma concentration of Compound A", "setting": "in vivo; 24.0 h, individual mice", "value": "BQL"},
      {"measurement": "Tmax of Compound A", "setting": "in vivo; male, CD-1, mouse, in vivo, ip, 4.061 mg/kg", "value": 30, "unit": "min"},
      {"measurement": "AUC(0-t)", "setting": "in vivo; [1]", "value": "179 ± 6.91", "unit": "ng·h/mL"},
      {"measurement": "Cmax", "setting": "in vivo; [1]", "value": "143 ± 27.6", "unit": "ng/mL"},
      {"measurement": "MRT last", "setting": "in vivo; [1]", "value": "70.8 ± 6.78", "unit": "min"},
      {"measurement": "Tmax", "setting": "in vivo; [1]", "value": 30, "unit": "min"},
      {"measurement": "half-life", "setting": "in vivo; [1]", "value": "53.1 ± 7.8", "unit": "min"},
      {"measurement": "Tmax of Compound A", "setting": "in vivo; male, CD-1, mouse, in vivo, po, 6.645 mg/kg", "value": 15, "unit": "min"},
      {"measurement": "Clinical observation (tolerability)", "setting": "in vivo; mouse, in vivo", "value": "well tolerated"},
      {"measurement": "IC50", "setting": "OCT2", "value": 3.49, "unit": "µM"},
      {"measurement": "Relative transporter specific accumulation", "setting": "OCT2; [2]", "value": "109.28 ± 6.45 % of control"},
      {"measurement": "Transporter specific accumulation", "setting": "OCT2; [2]", "value": "259.00 ± 13.36", "unit": "cpm"},
      {"measurement": "Relative transporter specific accumulation", "setting": "OCT2; [3]", "value": "106.33 ± 3.85 % of control"},
      {"measurement": "Transporter specific accumulation", "setting": "OCT2; [3]", "value": "252.00 ± 5.57", "unit": "cpm"},
      {"measurement": "Relative transporter specific accumulation", "setting": "OCT2; [4]", "value": "84.39 ± 4.06 % of control"},
      {"measurement": "Transporter specific accumulation", "setting": "OCT2; [4]", "value": "200.00 ± 7.72", "unit": "cpm"},
      {"measurement": "Relative transporter specific accumulation", "setting": "OCT2; [5]", "value": "51.42 ± 3.71 % of control"},
      {"measurement": "Transporter specific accumulation", "setting": "OCT2; [5]", "value": "150.67 ± 6.96", "unit": "cpm"},
      {"measurement": "Relative transporter specific accumulation", "setting": "OCT2; [6]", "value": "25.88 ± 3.39 % of control"},
      {"measurement": "Transporter specific accumulation", "setting": "OCT2; [6]", "value": "61.33 ± 7.84", "unit": "cpm"},
      {"measurement": "Relative transporter specific accumulation", "setting": "OCT2; [7]", "value": "9.42 ± 0.99 % of control"},
      {"measurement": "Transporter specific accumulation", "setting": "OCT2; [7]", "value": "22.33 ± 2.26", "unit": "cpm"},
      {"measurement": "Relative transporter specific accumulation", "setting": "OCT2; [8]", "value": "13.54 ± 1.38 % of control"},
      {"measurement": "Transporter specific accumulation", "setting": "OCT2; [8]", "value": "39.67 ± 3.38", "unit": "cpm"},
      {"measurement": "inhibition at 10 µM", "setting": "OCT2; human, Maximum % inhibition, OCT2, HEK293 cells, metformin (10 μM), NIO: no inhibition observed", "value": 91, "unit": "%"},
      {"measurement": "inhibition at 0.04 μM", "setting": "OCT2; human, Relative Inhibition, 0.04 μM nominal, metformin, IC50 determination, Table 124", "value": -9, "unit": "%"},
      {"measurement": "inhibition at 0.12 μM", "setting": "OCT2; human, Relative Inhibition, 0.12 μM nominal, metformin, IC50 determination, Table 124", "value": -6, "unit": "%"},
      {"measurement": "inhibition at 1.11 μM", "setting": "OCT2; human, Relative Inhibition, 1.11 μM nominal, metformin, IC50 determination, Table 124", "value": 16, "unit": "%"},
      {"measurement": "inhibition at 10 µM", "setting": "OCT2; human, Relative Inhibition, 10.00 μM nominal, metformin, IC50 determination, Table 124", "value": 74, "unit": "%"},
      {"measurement": "inhibition at 30 μM", "setting": "OCT2; human, Relative Inhibition, 30.00 μM nominal, metformin, IC50 determination, Table 124", "value": 91, "unit": "%"},
      {"measurement": "inhibition at 3 μM", "setting": "OCT2; human, Relative inhibition, 3.00 μM nominal, metformin, Table 123", "value": 49, "unit": "%"},
      {"measurement": "inhibition at 30 μM", "setting": "OCT2; human, Relative inhibition, 30.00 μM nominal, metformin, Table 123", "value": 86, "unit": "%"}
    ]}
  ]
}
